Test results reported in patent US10829501B2 (BRISTOL-MYERS SQUIBB COMPANY, priority 2016, dated 2020).
Counter-ions that a name gives are not always drawn.

Molecular target: ROCK2 (Homo sapiens, UniProt O75116)
Assay: ROCK2 kinase inhibition assay (LABCHIP 3000 Reader, FITC peptide substrate);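 note: rho kinase reaction read by separating phosphorylated from unphosphorylated peptide on chip, with inhibition of kinase activity computed per concentration across a dose-response series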

Sequence of ROCK2 (O75116 whole entry, species assumed): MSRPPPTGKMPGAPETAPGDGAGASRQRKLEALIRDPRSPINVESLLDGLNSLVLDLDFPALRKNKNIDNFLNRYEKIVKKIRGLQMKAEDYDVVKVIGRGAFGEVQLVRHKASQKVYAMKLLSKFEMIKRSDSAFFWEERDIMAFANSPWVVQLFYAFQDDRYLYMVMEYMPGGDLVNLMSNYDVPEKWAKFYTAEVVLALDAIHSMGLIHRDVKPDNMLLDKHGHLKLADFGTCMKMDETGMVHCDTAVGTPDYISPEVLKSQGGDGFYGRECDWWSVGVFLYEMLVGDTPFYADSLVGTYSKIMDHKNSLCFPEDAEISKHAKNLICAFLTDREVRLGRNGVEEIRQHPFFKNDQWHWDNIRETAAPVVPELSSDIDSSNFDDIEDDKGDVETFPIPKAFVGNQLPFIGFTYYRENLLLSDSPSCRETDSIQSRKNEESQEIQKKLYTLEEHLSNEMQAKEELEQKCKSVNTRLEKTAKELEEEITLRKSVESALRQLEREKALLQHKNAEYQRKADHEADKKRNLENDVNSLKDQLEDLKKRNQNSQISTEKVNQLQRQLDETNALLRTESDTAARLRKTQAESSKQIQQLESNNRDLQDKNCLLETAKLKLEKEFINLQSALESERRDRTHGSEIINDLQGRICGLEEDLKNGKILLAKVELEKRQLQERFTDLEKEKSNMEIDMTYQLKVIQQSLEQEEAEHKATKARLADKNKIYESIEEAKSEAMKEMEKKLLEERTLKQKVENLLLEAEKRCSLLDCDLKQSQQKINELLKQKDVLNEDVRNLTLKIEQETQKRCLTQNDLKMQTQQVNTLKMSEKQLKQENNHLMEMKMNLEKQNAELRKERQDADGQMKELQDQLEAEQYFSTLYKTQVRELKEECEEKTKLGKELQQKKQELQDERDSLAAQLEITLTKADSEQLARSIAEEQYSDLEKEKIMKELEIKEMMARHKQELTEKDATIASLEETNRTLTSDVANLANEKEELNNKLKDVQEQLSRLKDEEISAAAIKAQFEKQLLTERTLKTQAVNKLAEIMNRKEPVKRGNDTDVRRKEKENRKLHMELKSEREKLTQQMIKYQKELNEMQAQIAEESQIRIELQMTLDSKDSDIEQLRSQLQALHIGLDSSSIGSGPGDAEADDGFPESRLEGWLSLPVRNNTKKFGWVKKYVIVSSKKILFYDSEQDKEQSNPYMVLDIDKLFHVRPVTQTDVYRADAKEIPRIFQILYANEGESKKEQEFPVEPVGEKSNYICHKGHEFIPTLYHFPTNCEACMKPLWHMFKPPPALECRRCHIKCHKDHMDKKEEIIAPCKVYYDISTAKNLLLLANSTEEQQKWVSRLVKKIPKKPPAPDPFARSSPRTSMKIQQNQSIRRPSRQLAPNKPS

Compound | IC50
NC(=O)c1cccnc1O[C@H]1CC2(C[C@H](NC(=O)c3csc(-c4ccccn4)n3)C2)C1 (stereo partly drawn) [Example 130, N-((aR)-6-((3-carbamoylpyridin-2-yl)oxy)spiro [3.3]heptan-2-yl)-2-(pyridin-2-yl)thiazole-4-carboxamide, bis-trifluoroacetate] | 250 to 2500 nM
CN(c1ccccc1)S(=O)(=O)c1cccc(C(=O)N[C@H]2CC3(C2)C[C@H](Oc2ncccc2C(N)=O)C3)c1 (stereo partly drawn) [Example 131, 2-(((aR)-6-(3-(N-methyl-N-phenylsulfamoyl)benzamido)spiro[3.3]heptan-2-yl)oxy) nicotinamide, trifluoroacetate] | 5 to 50 nM
NC(=O)c1cccnc1O[C@H]1CC2(C[C@H](NC(=O)c3nn(Cc4ccccc4)c4ccccc34)C2)C1 (stereo partly drawn) [Example 132, 1-benzyl-N-((aR)-6-((3-carbamoylpyridin-2-yl)oxy)spiro[3.3]heptan-2-yl)-1H-indazole-3-carboxamide, trifluoroacetate] | 5 to 50 nM
NC(=O)c1cccnc1O[C@H]1CC2(C[C@H](NC(=O)c3cccc(-n4cccn4)c3)C2)C1 (stereo partly drawn) [Example 134, 2-(((aR)-6-(3-(1H-pyrazol-1-yl)benzamido)spiro[3.3]heptan-2-yl)oxy) nicotinamide, trifluoroacetate] | 50 to 250 nM
Cc1nc(-c2cccnc2)sc1C(=O)N[C@H]1CC2(C1)C[C@H](Oc1ncccc1C(N)=O)C2 (stereo partly drawn) [Example 135, N-((aR)-6-((3-carbamoylpyridin-2-yl)oxy)spiro [3.3]heptan-2-yl)-4-methyl-2-(pyridin-3-yl)thiazole-5-carboxamide, bis-trifluoroacetate] | 250 to 2500 nM
COc1ccc(-c2nc(C(=O)N[C@H]3CC4(C3)C[C@H](Oc3ncccc3C(N)=O)C4)cs2)cc1 (stereo partly drawn) [Example 136, N-((aR)-6-((3-carbamoylpyridin-2-yl)oxy)spiro[3.3]heptan-2-yl)-2-(4-methoxyphenyl) thiazole-4-carboxamide, trifluoroacetate] | 250 to 2500 nM
CC(C)NS(=O)(=O)c1ccccc1C(=O)N[C@H]1CC2(C1)C[C@H](Oc1ncccc1C(N)=O)C2 (stereo partly drawn) [Example 138, 2-(((aR)-6-(2-(N-isopropylsulfamoyl)benzamido)spiro[3.3]heptan-2-yl)oxy)nicotinamide, trifluoroacetate] | 250 to 2500 nM
NC(=O)c1cccnc1O[C@H]1CC2(C[C@H](NC(=O)c3c(C(F)(F)F)nc4ccc(Cl)cn34)C2)C1 (stereo partly drawn) [Example 139, N-((aR)-6-((3-carbamoylpyridin-2-yl)oxy)spiro[3.3]heptan-2-yl)-6-chloro-2-(trifluoromethyl) imidazo[1,2-a]pyridine-3-carboxamide, trifluoroacetate] | 250 to 2500 nM
NC(=O)c1cccnc1O[C@H]1CC2(C[C@H](NC(=O)c3ccccc3-c3nc4ccccc4[nH]3)C2)C1 (stereo partly drawn) [Example 140, 2-(((aR)-6-(2-(1H-benzo[d]imidazol-2-yl)benamido)spiro [3.3]heptan-2-yl)oxy) nicotinamide, trifluoroacetate] | 250 to 2500 nM
NC(=O)c1cccnc1O[C@H]1CC2(C[C@H](NC(=O)c3cccc(Cn4ccnc4)c3)C2)C1 (stereo partly drawn) [Example 141, 2-(((aR)-6-(3-((1H-imidazol-1-yl)methyl)benzamido)spiro[3.3]heptan-2-yl)oxy) nicotinamide, trifluoroacetate] | 250 to 2500 nM
Cc1nnnn1-c1cccc(C(=O)N[C@H]2CC3(C2)C[C@H](Oc2ncccc2C(N)=O)C3)c1 (stereo partly drawn) [Example 142, 2-(((aR)-6-(3-(5-methyl-1H-tetrazol-1-yl)benzamido)spiro[3.3]heptan-2-yl)oxy) nicotinamide, trifluoroacetate] | 50 to 250 nM
COc1ccc(CCc2ccccc2C(=O)N[C@H]2CC3(C2)C[C@H](Oc2ncccc2C(N)=O)C3)cc1 (stereo partly drawn) [Example 143, 2-(((aR)-6-(2-(4-methoxyphenethyl)benzamido)spiro[3.3]heptan-2-yl)oxy)nicotinamide, trifluoroacetate] | 250 to 2500 nM
NC(=O)c1cccnc1O[C@H]1CC2(C[C@H](NC(=O)c3nc(-c4nc5ccccc5s4)cs3)C2)C1 (stereo partly drawn) [Example 144, 4-(benzo[d]thiazol-2-yl)-N-((aR)-6-((3-carbamoylpyridin-2-yl)oxy)spiro [3.3]heptan-2-yl)thiazole-2-carboxamide, trifluoroacetate] | 250 to 2500 nM
NC(=O)c1cccnc1O[C@H]1CC2(C[C@H](NC(=O)c3nc(-c4ccccn4)cs3)C2)C1 (stereo partly drawn) [Example 145, N-((aR)-6-((3-carbamoylpyridin-2-yl)oxy)spiro[3.3]heptan-2-yl)-4-(pyridin-2-yl) thiazole-2-carboxamide, trifluoroacetate] | 250 to 2500 nM
Cn1c(-c2nc(C(=O)N[C@H]3CC4(C3)C[C@H](Oc3ncccc3C(N)=O)C4)cs2)nc2ccccc21 (stereo partly drawn) [Example 146, N-((aR)-6-((3-carbamoylpyridin-2-yl)oxy)spiro[3.3]heptan-2-yl)-2-(1-methyl-1H-benzo[d]imidazol-2-yl)thiazole-4-carboxamide, trifluoroacetate] | 50 to 250 nM
Cc1noc(-c2cccc(C(=O)N[C@H]3CC4(C3)C[C@H](Oc3ncccc3C(N)=O)C4)c2)n1 (stereo partly drawn) [Example 147, 2-(((aR)-6-(3-(3-methyl-1,2,4-oxadiazol-5-yl)benzamido)spiro[3.3]heptan-2-yl)oxy) nicotinamide, trifluoroacetate] | 250 to 2500 nM
NC(=O)c1cccnc1O[C@H]1CC2(C[C@H](NC(=O)c3cc(S(N)(=O)=O)c(F)cc3Cl)C2)C1 (stereo partly drawn) [Example 148, 2-(((aR)-6-(2-chloro-4-fluoro-5-sulfamoylbenzamido)spiro[3.3]heptan-2-yl)oxy) nicotinamide, trifluoroacetate] | 50 to 250 nM

Compound | IC50
NC(=O)c1cccnc1O[C@H]1CC2(C[C@H](NC(=O)c3ccc4c(c3)S(=O)(=O)NC4=O)C2)C1 (stereo partly drawn) [Example 149, N-((aR)-6-((3-carbamoylpyridin-2-yl)oxy)spiro[3.3]heptan-2-yl)-3-oxo-2,3-dihydrobenzo[d] isothiazole-6-carboxamide 1,1-dioxide, trifluoroacetate] | 50 to 250 nM
NC(=O)c1cccnc1O[C@H]1CC2(C[C@H](NC(=O)c3ccc(F)c(S(N)(=O)=O)c3)C2)C1 (stereo partly drawn) [Example 150, 2-(((aR)-6-(4-fluoro-3-sulfamoylbenzamido)spiro[3.3]heptan-2-yl)oxy) nicotinamide, trifluoroacetate] | 5 to 50 nM
NC(=O)c1cccnc1O[C@H]1CC2(C[C@H](NC(=O)c3ccc4[nH]c(=O)c(=O)[nH]c4c3)C2)C1 (stereo partly drawn) [Example 151, N-((aR)-6-((3-carbamoylpyridin-2-yl)oxy)spiro[3.3]heptan-2-yl)-2,3-dioxo-1,2,3,4-tetrahydroquinoxaline-6-carboxamide, trifluoroacetate] | 250 to 2500 nM
NC(=O)c1cccnc1O[C@H]1CC2(C[C@H](NC(=O)c3ccc(Cl)c(S(N)(=O)=O)c3)C2)C1 (stereo partly drawn) [Example 152, 2-(((aR)-6-(4-chloro-3-sulfamoylbenzamido)spiro[3.3]heptan-2-yl)oxy) nicotinamide, trifluoroacetate] | 5 to 50 nM
NC(=O)c1cccnc1O[C@H]1CC2(C[C@H](NC(=O)c3cn4cc(Cl)ccc4n3)C2)C1 (stereo partly drawn) [Example 153, N-((aR)-6-((3-carbamoylpyridin-2-yl)oxy)spiro[3.3]heptan-2-yl)-6-chloroimidazo[1,2-a]pyridine-2-carboxamide, trifluoroacetate] | 250 to 2500 nM
Cn1c(C(=O)N[C@H]2CC3(C2)C[C@H](Oc2ncccc2C(N)=O)C3)cc2ccc(Cl)cc21 (stereo partly drawn) [Example 154, N-((aR)-6-((3-carbamoylpyridin-2-yl)oxy)spiro[3.3]heptan-2-yl)-6-chloro-1-methyl-1H-indole-2-carboxamide] | 50 to 250 nM
N#Cc1ccc(F)c(C(=O)N[C@H]2CC3(C2)C[C@H](Oc2ncccc2C(N)=O)C3)c1 (stereo partly drawn) [Example 155, 2-(((aR)-6-(5-cyano-2-fluorobenzamido)spiro[3.3]heptan-2-yl)oxy)nicotinamide] | 250 to 2500 nM
N#Cc1cc(C(=O)N[C@H]2CC3(C2)C[C@H](Oc2ncccc2C(N)=O)C3)ccc1F (stereo partly drawn) [Example 156, 2-(((aR)-6-(3-cyano-4-fluorobenzamido)spiro[3.3]heptan-2-yl)oxy) nicotinamide] | 50 to 250 nM
N#Cc1cc(F)cc(C(=O)N[C@H]2CC3(C2)C[C@H](Oc2ncccc2C(N)=O)C3)c1 (stereo partly drawn) [Example 157, 2-(((aR)-6-(3-cyano-5-fluorobenzamido)spiro[3.3]heptan-2-yl)oxy) nicotinamide] | 50 to 250 nM
N#Cc1cccc(C(=O)N[C@H]2CC3(C2)C[C@H](Oc2ncccc2C(N)=O)C3)c1 (stereo partly drawn) [Example 158, 2-(((aR)-6-(3-cyanobenzamido)spiro[3.3]heptan-2-yl)oxy) nicotinamide] | 50 to 250 nM
NC(=O)c1cccnc1O[C@H]1CC2(C[C@H](NC(=O)c3cc4ccccc4cn3)C2)C1 (stereo partly drawn) [Example 159, N-((aR)-6-((3-carbamoylpyridin-2-yl)oxy)spiro[3.3]heptan-2-yl)isoquinoline-3-carboxamide] | 50 to 250 nM
N#Cc1cccc(-c2ccc(C(=O)N[C@H]3CC4(C3)C[C@H](Oc3ncccc3C(N)=O)C4)cc2)c1 (stereo partly drawn) [Example 160, 2-(((aR)-6-(3′-cyano-[1,1′-biphenyl]-4-ylcarboxamido)spiro[3.3]heptan-2-yl)oxy) nicotinamide] | 50 to 250 nM
N#Cc1ccc(-c2ccc(C(=O)N[C@H]3CC4(C3)C[C@H](Oc3ncccc3C(N)=O)C4)cn2)cc1 (stereo partly drawn) [Example 161, N-((aR)-6-((3-carbamoylpyridin-2-yl)oxy)spiro[3.3]heptan-2-yl)-6-(4-cyanophenyl) nicotinamide] | 5 to 50 nM
NC(=O)c1cccnc1O[C@H]1CC2(C[C@H](NC(=O)c3ccc(-c4cccc(F)c4)cc3)C2)C1 (stereo partly drawn) [Example 162, 2-(((aR)-6-(3′-fluoro-[1,1′-biphenyl]-4-ylcarboxamido)spiro[3.3]heptan-2-yl)oxy)nicotinamide] | 5 to 50 nM
CC1(C)Cc2cccc(C(=O)N[C@H]3CC4(C3)C[C@H](Oc3ncccc3C(N)=O)C4)c2O1 (stereo partly drawn) [Example 163, 2-(((aR)-6-(2,2-dimethyl-2,3-dihydrobenzofuran-7-carboxamido)spiro[3.3]heptan-2-yl)oxy) nicotinamide] | 250 to 2500 nM
Cc1nc(-c2ccccc2)oc1C(=O)N[C@H]1CC2(C1)C[C@H](Oc1ncccc1C(N)=O)C2 (stereo partly drawn) [Example 164, N-((aR)-6-((3-carbamoylpyridin-2-yl)oxy)spiro[3.3]heptan-2-yl)-4-methyl-2-phenyloxazole-5-carboxamide] | 250 to 2500 nM
